Assay results published in ChEMBL document CHEMBL1821675, “The selective P-TEFb inhibitor CAN508 targets angiogenesis” (Eur J Med Chem, 2011).
The source made the active and inactive calls. The rule behind the calls is not given here.

What was measured:
[1] = target: MAP kinase-activated protein kinase 2 (Homo sapiens) (UniProt P49137); test: Inhibition of MAPKAP-K2 assessed as residual activity at 10 uM by radioactivity assay in presence of 20 uM ATP
MCF7 = test: Inhibition of RNA synthesis in human MCF7 cells assessed as decrease in [3H] Uridine incorporation after 2 hrs by scintillation counting; assay type: functional, cell-based
[2] = target: Mitogen-activated protein kinase 3 (Homo sapiens) (UniProt P27361); test: Inhibition of ERK1 assessed as residual activity at 10 uM by radioactivity assay in presence of 5 uM ATP
HCT-116 = test: Cytotoxicity against human HCT116 cells; assay type: functional
[3] = target: MAP kinase-activated protein kinase 5 (Homo sapiens) (UniProt Q8IW41); test: Inhibition of PRAK assessed as residual activity at 10 uM by radioactivity assay in presence of 20 uM ATP
DU-145 = test: Decrease in VEGF expression in human DU145 cells at >10 uM after 24 hrs by sandwich ELISA; assay type: functional, cell-based
[4] = target: Protein kinase C zeta type (Homo sapiens) (UniProt Q05513); test: Inhibition of PKCzeta assessed as residual activity at 10 uM by radioactivity assay in presence of 5 uM ATP
[5] = target: Serine/threonine-protein kinase PAK 4 (Homo sapiens) (UniProt O96013); test: Inhibition of PAK4 assessed as residual activity at 10 uM by radioactivity assay in presence of 5 uM ATP
[6] = target: Serine/threonine-protein kinase PAK 5 (Homo sapiens) (UniProt Q9P286); test: Inhibition of PAK5 assessed as residual activity at 10 uM by radioactivity assay in presence of 20 uM ATP
RPMI-8226 = test: Cytotoxicity against human RPMI8226 cells; assay type: functional
[7] = target: Mitogen-activated protein kinase 12 (Homo sapiens) (UniProt P53778); test: Inhibition of p38-gamma MAPK assessed as residual activity at 10 uM by radioactivity assay in presence of 5 uM ATP
[8] = target: MAP/microtubule affinity-regulating kinase 3 (Homo sapiens) (UniProt P27448); test: Inhibition of MARK3 assessed as residual activity at 10 uM by radioactivity assay in presence of 5 uM ATP
[9] = Antiangiogenic activity in VEGF-stimulated HMEC1 assessed as reduction in total length of tube at 40 uM after 16 hrs by photographic analysis; assay type: functional, Homo sapiens, HMEC-1; design: scale not given: the % may be the effect or the level left
UACC-62 = test: Cytotoxicity against human UACC62 cells; assay type: functional
[10] = target: Homeodomain-interacting protein kinase 2 (Homo sapiens) (UniProt Q9H2X6); test: Inhibition of HIPK2 assessed as residual activity at 10 uM by radioactivity assay in presence of 5 uM ATP
UO-31 = test: Cytotoxicity against human UO31 cells; assay type: functional

Sequence of Mitogen-activated protein kinase 12 (Homo sapiens) (P53778 whole entry): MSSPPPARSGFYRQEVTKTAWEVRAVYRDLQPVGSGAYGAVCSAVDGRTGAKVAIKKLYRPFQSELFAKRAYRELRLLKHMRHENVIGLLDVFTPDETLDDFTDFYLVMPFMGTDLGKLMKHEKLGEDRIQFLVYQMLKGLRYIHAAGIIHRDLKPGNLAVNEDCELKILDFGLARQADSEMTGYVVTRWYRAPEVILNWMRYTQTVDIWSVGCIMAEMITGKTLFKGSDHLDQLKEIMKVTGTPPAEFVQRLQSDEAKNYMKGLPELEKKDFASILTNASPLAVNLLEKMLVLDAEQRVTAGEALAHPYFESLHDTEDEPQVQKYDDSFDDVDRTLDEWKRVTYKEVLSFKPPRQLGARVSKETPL
Sequence of Serine/threonine-protein kinase PAK 4 (Homo sapiens) (O96013 whole entry, looked up): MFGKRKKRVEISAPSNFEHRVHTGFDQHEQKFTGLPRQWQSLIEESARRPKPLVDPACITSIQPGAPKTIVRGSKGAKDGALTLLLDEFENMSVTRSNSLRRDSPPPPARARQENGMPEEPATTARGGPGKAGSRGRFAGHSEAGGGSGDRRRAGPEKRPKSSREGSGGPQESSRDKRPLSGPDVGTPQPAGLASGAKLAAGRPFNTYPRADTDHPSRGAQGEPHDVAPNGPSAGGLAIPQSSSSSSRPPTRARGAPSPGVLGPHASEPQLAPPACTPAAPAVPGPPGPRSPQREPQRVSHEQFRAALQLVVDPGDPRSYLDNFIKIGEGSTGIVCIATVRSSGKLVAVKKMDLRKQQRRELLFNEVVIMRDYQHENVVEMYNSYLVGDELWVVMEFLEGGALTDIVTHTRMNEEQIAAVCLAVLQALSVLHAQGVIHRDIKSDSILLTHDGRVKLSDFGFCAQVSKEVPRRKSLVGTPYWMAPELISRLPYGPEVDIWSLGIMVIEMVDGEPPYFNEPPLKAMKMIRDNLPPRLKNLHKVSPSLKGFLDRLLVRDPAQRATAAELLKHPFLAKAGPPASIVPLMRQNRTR
Sequence of MAP/microtubule affinity-regulating kinase 3 (Homo sapiens) (P27448 whole entry, looked up): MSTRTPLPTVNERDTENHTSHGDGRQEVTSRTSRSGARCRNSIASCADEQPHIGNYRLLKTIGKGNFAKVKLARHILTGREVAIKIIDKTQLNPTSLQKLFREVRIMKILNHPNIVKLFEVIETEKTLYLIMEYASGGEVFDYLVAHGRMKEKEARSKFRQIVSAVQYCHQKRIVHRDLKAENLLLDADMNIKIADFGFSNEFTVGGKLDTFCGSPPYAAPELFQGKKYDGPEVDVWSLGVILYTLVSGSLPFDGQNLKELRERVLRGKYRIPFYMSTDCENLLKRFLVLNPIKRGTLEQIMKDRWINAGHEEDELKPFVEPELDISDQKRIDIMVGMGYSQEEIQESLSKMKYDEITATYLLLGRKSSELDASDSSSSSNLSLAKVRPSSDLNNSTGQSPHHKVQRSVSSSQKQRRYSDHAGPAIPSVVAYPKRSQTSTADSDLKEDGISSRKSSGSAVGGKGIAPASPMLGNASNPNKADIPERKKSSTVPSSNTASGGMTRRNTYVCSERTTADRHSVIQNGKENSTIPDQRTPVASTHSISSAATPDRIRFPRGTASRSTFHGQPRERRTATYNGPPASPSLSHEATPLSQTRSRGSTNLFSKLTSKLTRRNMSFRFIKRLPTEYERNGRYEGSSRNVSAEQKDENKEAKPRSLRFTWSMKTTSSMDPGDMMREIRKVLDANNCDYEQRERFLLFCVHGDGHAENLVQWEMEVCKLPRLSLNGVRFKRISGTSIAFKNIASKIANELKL
Sequence of Mitogen-activated protein kinase 3 (Homo sapiens) (P27361 whole entry): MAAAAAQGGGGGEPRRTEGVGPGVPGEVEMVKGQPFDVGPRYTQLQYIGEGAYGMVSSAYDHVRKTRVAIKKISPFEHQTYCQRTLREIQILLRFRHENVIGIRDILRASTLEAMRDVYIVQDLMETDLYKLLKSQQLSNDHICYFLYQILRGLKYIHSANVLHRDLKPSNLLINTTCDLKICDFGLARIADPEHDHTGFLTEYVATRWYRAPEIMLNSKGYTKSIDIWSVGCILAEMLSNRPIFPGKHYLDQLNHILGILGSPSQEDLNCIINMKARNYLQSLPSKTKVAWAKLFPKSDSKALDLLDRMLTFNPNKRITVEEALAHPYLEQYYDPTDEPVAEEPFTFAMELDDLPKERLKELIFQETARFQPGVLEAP
Sequence of Homeodomain-interacting protein kinase 2 (Homo sapiens) (Q9H2X6 whole entry, looked up): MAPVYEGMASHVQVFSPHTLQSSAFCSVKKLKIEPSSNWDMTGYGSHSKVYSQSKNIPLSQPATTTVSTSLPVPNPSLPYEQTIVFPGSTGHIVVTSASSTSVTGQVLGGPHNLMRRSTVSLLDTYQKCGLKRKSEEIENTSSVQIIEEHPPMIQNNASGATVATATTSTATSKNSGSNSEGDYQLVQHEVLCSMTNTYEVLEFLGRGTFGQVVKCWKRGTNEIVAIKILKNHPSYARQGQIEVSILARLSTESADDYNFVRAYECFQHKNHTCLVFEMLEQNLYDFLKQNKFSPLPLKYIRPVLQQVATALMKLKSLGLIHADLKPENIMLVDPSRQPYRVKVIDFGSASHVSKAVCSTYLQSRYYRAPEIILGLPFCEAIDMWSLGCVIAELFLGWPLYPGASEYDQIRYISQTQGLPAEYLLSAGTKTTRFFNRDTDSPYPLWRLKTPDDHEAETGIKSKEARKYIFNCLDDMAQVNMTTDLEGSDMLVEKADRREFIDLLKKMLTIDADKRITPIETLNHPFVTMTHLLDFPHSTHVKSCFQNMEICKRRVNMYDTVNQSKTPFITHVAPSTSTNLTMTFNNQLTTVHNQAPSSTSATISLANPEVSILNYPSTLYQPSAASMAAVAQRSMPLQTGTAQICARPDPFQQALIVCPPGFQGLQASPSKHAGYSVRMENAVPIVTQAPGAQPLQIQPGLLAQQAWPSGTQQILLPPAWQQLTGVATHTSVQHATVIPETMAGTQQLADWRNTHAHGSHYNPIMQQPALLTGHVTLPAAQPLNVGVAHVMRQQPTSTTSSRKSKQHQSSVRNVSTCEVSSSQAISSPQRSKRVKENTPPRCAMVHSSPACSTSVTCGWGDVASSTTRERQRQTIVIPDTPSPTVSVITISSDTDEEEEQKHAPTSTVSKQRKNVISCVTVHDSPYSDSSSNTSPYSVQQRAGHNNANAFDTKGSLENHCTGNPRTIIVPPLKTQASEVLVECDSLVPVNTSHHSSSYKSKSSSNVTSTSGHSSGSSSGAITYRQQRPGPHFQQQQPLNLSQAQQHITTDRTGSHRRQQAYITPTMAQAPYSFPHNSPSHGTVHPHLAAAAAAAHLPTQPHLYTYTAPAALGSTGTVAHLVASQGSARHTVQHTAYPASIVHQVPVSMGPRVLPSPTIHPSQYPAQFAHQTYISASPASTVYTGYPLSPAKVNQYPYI
Sequence of MAP kinase-activated protein kinase 5 (Homo sapiens) (Q8IW41 whole entry): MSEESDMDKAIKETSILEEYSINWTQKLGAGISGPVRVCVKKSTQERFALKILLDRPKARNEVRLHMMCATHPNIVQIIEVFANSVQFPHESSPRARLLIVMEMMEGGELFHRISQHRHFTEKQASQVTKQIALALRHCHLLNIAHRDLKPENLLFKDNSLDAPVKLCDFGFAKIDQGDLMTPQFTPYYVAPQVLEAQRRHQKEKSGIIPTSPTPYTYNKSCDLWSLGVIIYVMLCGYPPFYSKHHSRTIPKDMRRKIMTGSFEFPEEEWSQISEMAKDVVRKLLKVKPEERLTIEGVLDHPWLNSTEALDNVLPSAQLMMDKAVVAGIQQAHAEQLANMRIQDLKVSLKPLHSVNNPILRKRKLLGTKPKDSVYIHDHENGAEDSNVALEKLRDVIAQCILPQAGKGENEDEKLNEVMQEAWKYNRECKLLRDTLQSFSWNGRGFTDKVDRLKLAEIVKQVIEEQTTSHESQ
Sequence of MAP kinase-activated protein kinase 2 (Homo sapiens) (P49137 whole entry, looked up): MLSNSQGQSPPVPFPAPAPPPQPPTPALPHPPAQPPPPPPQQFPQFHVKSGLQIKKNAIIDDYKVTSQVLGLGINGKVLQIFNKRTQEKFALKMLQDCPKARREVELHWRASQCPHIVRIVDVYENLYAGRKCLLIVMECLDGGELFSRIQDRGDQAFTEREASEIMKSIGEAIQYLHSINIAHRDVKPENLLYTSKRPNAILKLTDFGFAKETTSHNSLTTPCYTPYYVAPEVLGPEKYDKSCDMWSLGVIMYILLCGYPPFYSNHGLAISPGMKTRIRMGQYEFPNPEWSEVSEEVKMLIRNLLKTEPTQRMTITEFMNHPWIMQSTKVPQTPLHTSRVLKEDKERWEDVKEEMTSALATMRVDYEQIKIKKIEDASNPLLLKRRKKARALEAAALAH
Sequence of Serine/threonine-protein kinase PAK 5 (Homo sapiens) (Q9P286 whole entry, looked up): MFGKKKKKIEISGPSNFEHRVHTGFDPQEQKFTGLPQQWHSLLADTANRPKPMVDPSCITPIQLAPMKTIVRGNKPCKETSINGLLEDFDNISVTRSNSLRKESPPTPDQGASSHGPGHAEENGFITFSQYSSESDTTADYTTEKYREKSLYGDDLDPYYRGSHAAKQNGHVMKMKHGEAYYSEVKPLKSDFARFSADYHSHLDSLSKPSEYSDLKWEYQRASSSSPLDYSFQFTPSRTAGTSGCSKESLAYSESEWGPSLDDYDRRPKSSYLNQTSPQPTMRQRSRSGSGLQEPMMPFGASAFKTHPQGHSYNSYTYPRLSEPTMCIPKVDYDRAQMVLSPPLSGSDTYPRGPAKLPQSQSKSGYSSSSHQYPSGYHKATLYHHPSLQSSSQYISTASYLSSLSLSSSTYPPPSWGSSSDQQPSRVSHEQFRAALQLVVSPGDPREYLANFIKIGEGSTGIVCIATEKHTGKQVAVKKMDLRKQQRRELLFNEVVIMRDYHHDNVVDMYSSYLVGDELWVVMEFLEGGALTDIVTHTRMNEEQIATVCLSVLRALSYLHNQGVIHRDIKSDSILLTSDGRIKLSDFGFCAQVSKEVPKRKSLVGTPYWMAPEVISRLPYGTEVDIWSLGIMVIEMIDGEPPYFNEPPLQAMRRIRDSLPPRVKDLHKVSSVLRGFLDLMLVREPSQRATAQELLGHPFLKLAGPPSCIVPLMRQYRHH

SMILES: Nc1n[nH]c(N)c1/N=N/c1ccc(O)cc1
- Activity [1]: 26%
- IC50 (MCF7): 15 µM
- Activity [2]: 115%
- GI50 (HCT-116): 18.9 µM
- Activity [3]: 43%
- Activity (DU-145): Active
- Activity [4]: 74%
- Activity [5]: 79%
- Activity [6]: 88%
- GI50 (RPMI-8226): 14.4 µM
- Activity [7]: 50%
- Activity [8]: 50%
- Activity [9]: 30%
- GI50 (UACC-62): 11 µM
- Activity [10]: 44%
- GI50 (UO-31): 13.7 µM
